In patent publication US20030232986A1, “Inhibitors of caspases” (Vertex Pharmaceuticals Incorporated, priority 1998, published 2003):
Read-outs that look alike come from different tables or passages of the source. Where a SMILES comes first, the peptide text is derived from it. [ ]: non-standard residue; d: D form. The star is where a group is joined. 4Abz = Nc1ccc(C(=O)O)cc1; Bz = O=C(c1ccccc1)*

Key:
Caspase-1 = target: T1, Caspase-1 (Homo sapiens, UniProt P29466); assay: Caspase-1 enzyme inhibition (Ki); format: biochemical
T1 sequence (P29466 120-297 limits assumed): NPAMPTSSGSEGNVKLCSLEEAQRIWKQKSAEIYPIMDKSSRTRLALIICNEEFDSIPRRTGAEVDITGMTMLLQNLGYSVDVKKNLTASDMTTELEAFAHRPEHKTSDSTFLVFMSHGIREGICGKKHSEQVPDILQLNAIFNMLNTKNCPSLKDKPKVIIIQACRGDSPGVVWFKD
T1 sequence (P29466 317-404 limits assumed): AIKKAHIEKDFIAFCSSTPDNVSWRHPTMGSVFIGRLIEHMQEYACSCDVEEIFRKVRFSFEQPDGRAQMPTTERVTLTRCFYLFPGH
Summary of the method: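 Ki obtained by fitting rate versus inhibitor concentration to the Morrison tight-binding equation for competitive inhibitors, with pNA release read at 405 nm at 37 °C. Substrate Suc-YVAD-pNA (80 μM final) added after 15 min enzyme–inhibitor preincubation in Tris pH 7.5 buffer with DTT and CHAPS.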

[1] = tested on: Human Peripheral Blood Mononuclear Cells (PBMC), mature IL-1β; assay: PBMC cell assay: IL-1β assay with human peripheral blood mononuclear cells; format: cell-based; settings: LPS-stimulated human PBMC, mature IL-1β in supernatant by ELISA
Text: IL-1β Assay with a Mixed Population of Human Peripheral Blood Mononuclear Cells (PBMC) or Enriched Adherent Mononuclear Cells
Processing of pre-IL-1β by ICE can be measured in cell culture using a variety of cell sources. Human PBMC obtained from healthy donors provides a mixed population of lymphocyte subtypes and mononuclear cells that produce a spectrum of interleukins and cytokines in response to many classes of physiological stimulators. Adherent mononuclear cells from PBMC provides an enriched source of normal monocytes for selective studies of cytokine production by activated cells.
An initial dilution series of test compound in DMSO or ethanol is prepared, with a subsequent dilution into RPMI-10% FBS media (containing 2 mM L-glutamine, 10 mM HEPES, 50 U and 50 ug/ml pen/strep) respectively to yield drugs at 4× the final test concentration containing 0.4% DMSO or 0.4% ethanol. The final concentration of DMSO is 0.1% for all drug dilutions. A concentration titration which brackets the apparent Ki for a test compound determined in an ICE inhibition assay is generally used for the primary compound screen.
Generally 5-6 compound dilutions are tested and the cellular component of the assay is performed in duplicate, with duplicate ELISA determinations on each cell culture supernatant.
Buffy coat cells isolated from one pint human blood (yielding 40-45 ml final volume plasma plus cells) are diluted with media to 80 ml and LeukoPREP separation tubes (Becton Dickinson) are each overlaid with 10 ml of cell suspension. After 15 min centrifugation at 1500-1800×g, the plasma/media layer is aspirated and then the mononuclear cell layer is collected with a Pasteur pipette and transferred to a 15 ml conical centrifuge tube (Corning). Media is added to bring the volume to 15 ml, gently mix the cells by inversion and centrifuge at 300×g for 15 min. The PBMC pellet is resuspended in a small volume of media, the cells are counted and adjusted to 6×10^6 cells/ml.
For the cellular assay, 1.0 ml of the cell suspension is added to each well of a 24-well flat bottom tissue culture plate (Corning), 0.5 ml test compound dilution and 0.5 ml LPS solution (Sigma #L-3012; 20 ng/ml solution prepared in complete RPMI media; final LPS concentration 5 ng/ml). The 0.5 ml additions of test compound and LPS are usually sufficient to mix the contents of the wells. Three control mixtures are run per experiment, with either LPS alone, solvent vehicle control, and/or additional media to adjust the final culture volume to 2.0 ml. The cell cultures are incubated for 16-18 hr at 37° C. in the presence of 5% CO2.
At the end of the incubation period, cells are harvested and transferred to 15 ml conical centrifuge tubes. After centrifugation for 10 min at 200×g, supernatants are harvested and transferred to 1.5 ml Eppendorf tubes. It may be noted that the cell pellet may be utilized for a biochemical evaluation of pre-IL-1β and/or mature IL-1β content in cytosol extracts by Western blotting or ELISA with pre-IL-1β specific antisera.
PBMC are isolated and prepared as described above. Media (1.0 ml) is first added to wells followed by 0.5 ml of the PBMC suspension. After a one hour incubation, plates are gently shaken and nonadherent cells aspirated from each well. Wells are then gently washed three times with 1.0 ml of media and final resuspended in 1.0 ml media. The enrichment for adherent cells generally yields 2.5-3.0×10^5 cells per well. The addition of test compounds, LPS, cell incubation conditions and processing of supernatants proceeds as described above.
Quantikine kits (R&D Systems) may be used for the measurement of mature IL-1β. Assays are performed according to the manufacturer's directions. Mature IL-1β levels of about 1-3 ng/ml in both PBMC and adherent mononuclear cell positive controls are observed. […]

[2] = tested on: Human whole blood, IL-1β production; assay: Whole blood assay for IL-1β production; format: cell-based; settings: LPS-stimulated whole blood, IL-1β by ELISA
Protocol: The whole blood assay is a simple method for measuring the production of IL-1β (or other cytokines) and the activity of potential inhibitors. The complexity of this assay system, with its full complement of lymphoid and inflammatory cell types, spectrum of plasma proteins and red blood cells is an ideal in vitro representation of human in vivo physiologic conditions.
Set incubator or water bath at 30° C. Aliquot 0.25 ml of blood into 1.5 ml eppendorf tubes. Note: be sure to invert the whole blood sample tubes after every two aliquots. Differences in replicates may result if the cells sediment and are not uniformly suspended. Use of a positive displacement pipette will also minimize differences between replicate aliquots.
Prepare drug dilutions in sterile pyrogen-free saline by serial dilution. A dilution series which brackets the apparent Ki for a test compound determined in an ICE inhibition assay is generally used for the primary compound screen. For extremely hydrophobic compounds, prepare compound dilutions in fresh plasma obtained from the same blood donor or in PBS-containing 5% DMSO to enhance solubility.
Add 25 μl test compound dilution or vehicle control and gently mix the sample. Then add 5.0 μl LPS solution (250 ng/ml stocked prepared fresh: 5.0 ng/ml final concentration LPS), and mix again. Incubate the tubes at […] in a water bath for 16-18 hr with occasional mixing. Alternatively, the tubes can be placed in a rotator set at 4 rpm for the same incubation period. This assay should be set up in duplicate or triplicate with the following controls: negative control—no LPS; positive control—no test inhibitor; vehicle control—the highest concentration of DMSO or compound solvent used in the experiment. Additional saline is added to all control tubes to normalize volumes for both control and experimental whole blood test samples.
After the incubation period, whole blood samples are centrifuged for 10 minutes at ^˜2000 rpm in the microfuge, plasma is transferred to a fresh microfuge tube and centrifuged at 1000×g to pellet residual platelets if necessary. Plasma samples may be stored frozen at −70° C. prior to assay for cytokine levels by ELISA.
R & D Systems (614 McKinley Place N.E. Minneapolis, Minn. 55413) Quantikine kits may be used for measurement of IL-1β and TNF-α. The assays are performed according to the manufacture's directions. IL-1β levels of ^˜1-5 ng/ml in positive controls among a range of individuals may be observed. A 1:200 dilution of plasma for all samples is usually sufficient for experiments for ELISA results to fall on the linear range of the ELISA standard curves. It may be necessary to optimize standard dilutions if you observe differences in the whole blood assay. Nerad, J. L. et al., J. Leukocyte Biol., 52, pp. 687-692 (1992).

[3] = substrate Suc-YVAD-pNA 80 μM, 37° C., pH 7.5

Row | Structure (SMILES) | Ki (Caspase-1) [nM] | Ki (Caspase-1; [3]) [nM] | IC50 [1] [nM] | IC50 [2] [nM]
1 | CC(C)[C@H](NC(=O)c1ccccc1C(=O)c1ccc(F)cc1)C(=O)N1CCC[C@H]1C(=O)N[C@H](C=O)CC(=O)O [Example 5l] | 10 to 1000 | 10 to 1000 | < 500 | > 7500
2 | COc1cc(C(=O)N[C@H](C(=O)N2CCC[C@H]2C(=O)N[C@H](C=O)CC(=O)O)C(C)C)cc(OC)c1O [Example 5n] | < 10 | < 10 | 500 to 1000 | 2500 to 7500
3 | CC(C)[C@H](NC(=O)c1ccc2c(c1)OCO2)C(=O)N1CCC[C@H]1C(=O)N[C@H](C=O)CC(=O)O [Example 5r] | 10 to 1000 | 10 to 1000 | > 2000 | > 7500
4 | CC(C)[C@H](NC(=O)c1cnnc2ccccc12)C(=O)N1CCC[C@H]1C(=O)N[C@H](C=O)CC(=O)O [Example 5s] | 10 to 1000 | 10 to 1000 | 500 to 1000 | > 7500
5 | CC(C)[C@H](NC(=O)c1ccccc1C(=O)c1ccccc1)C(=O)N1CCC[C@H]1C(=O)N[C@H](C=O)CC(=O)O [Example 5u] | 10 to 1000 | 10 to 1000 | 1000 to 2000 | < 2500
6 | CC(C)[C@H](NC(=O)c1cnc2ccccc2n1)C(=O)N1CCC[C@H]1C(=O)N[C@H](C=O)CC(=O)O [Example 5w] | 10 to 1000 | 10 to 1000 | 500 to 1000 | < 2500
7 | CC(C)[C@H](NC(=O)c1ccccc1C(=O)N[C@@H](C)c1ccccc1)C(=O)N1CCC[C@H]1C(=O)N[C@H](C=O)CC(=O)O [Example 5x] | < 10 | < 10 | 500 to 1000 | < 2500
8 | CCCCCCOc1ccc(C(=O)N[C@H](C(=O)N2CCC[C@H]2C(=O)N[C@H](C=O)CC(=O)O)C(C)C)cc1 [Example 5y] | < 10 | < 10 | 500 to 1000 | 2500 to 7500
9 | CCCCCCc1ccc(C(=O)N[C@H](C(=O)N2CCC[C@H]2C(=O)N[C@H](C=O)CC(=O)O)C(C)C)cc1 [Example 5z] | < 10 | < 10 | 500 to 1000 | > 7500
10 | C[C@H](NC(=O)c1cccc2ccccc12)C(=O)N1CCC[C@H]1C(=O)N[C@H](C=O)CC(=O)O [Example 7a] | – | < 10 | > 2000 | 2500 to 7500
11 | C[C@H](NC(=O)c1ccccc1)C(=O)N1CCC[C@H]1C(=O)N[C@H](C=O)CC(=O)O [Example 7b] (Bz-Ala-Pro-Asp-aldehyde) | – | 10 to 1000 | 500 to 1000 | < 2500
12 | CC(=O)Nc1ccc(C(=O)N[C@@H](C)C(=O)N2CCC[C@H]2C(=O)N[C@H](C=O)CC(=O)O)cc1 [Example 7e] (Ac-[4Abz]APD-aldehyde) | – | 10 to 1000 | > 2000 | > 7500
13 | C[C@H](NC(=O)c1ccc(N(C)C)c2ccccc12)C(=O)N1CCC[C@H]1C(=O)N[C@H](C=O)CC(=O)O [Example 7g] | – | < 10 | < 500 | 2500 to 7500
14 | C[C@H](NC(=O)c1ccc(Cl)c(N)c1)C(=O)N1CCC[C@H]1C(=O)N[C@H](C=O)CC(=O)O [Example 7h] | – | 10 to 1000 | 500 to 1000 | < 2500
15 | COc1cc(C(=O)N[C@@H](C)C(=O)N2CCC[C@H]2C(=O)N[C@H](C=O)CC(=O)O)cc(OC)c1OC [Example 7k] | – | 10 to 1000 | 500 to 1000 | < 2500
16 | COc1cc(C(=O)N[C@@H](C)C(=O)N2CCC[C@H]2C(=O)N[C@H](C=O)CC(=O)O)ccc1N [Example 7l] | – | 10 to 1000 | 500 to 1000 | < 2500
17 | COc1ccc(C(=O)N[C@@H](C)C(=O)N2CCC[C@H]2C(=O)N[C@H](C=O)CC(=O)O)cc1F [Example 7m] | – | 10 to 1000 | 500 to 1000 | 2500 to 7500
18 | C[C@H](NC(=O)c1cccc(N(C)C)c1)C(=O)N1CCC[C@H]1C(=O)N[C@H](C=O)CC(=O)O [Example 7n] | – | 10 to 1000 | 500 to 1000 | < 2500
19 | COc1cc(C(=O)N[C@@H](C)C(=O)N2CCC[C@H]2C(=O)N[C@H](C=O)CC(=O)O)cc(Cl)c1O [Example 7o] | – | < 10 | < 500 | < 2500
20 | COc1ccc(C(=O)N[C@@H](C)C(=O)N2CCC[C@H]2C(=O)N[C@H](C=O)CC(=O)O)cc1C [Example 7p] | – | < 10 | > 2000 | 2500 to 7500
